Several values for one entry are separate records, joined by “and”; a condition that tells them apart may be missing. Identical values can stand only once.
Columns and labels:
S. anginosus = assay: High throughput assay screening of prebiotics; assay type: cell-based, Streptococcus anginosus; parameters: key: ++: if growth and fermentation was equal to or greater than the positive control; +: if growth and fermentation was less than the positive control; +: if weak or no growth or fermentation; +^2: Bacteria demonstrated growth but no fermentation on the prebiotic; conditions: S. anginosus KC18-1131-3B, Bladder; 2% w/v prebiotic in API 50 CHL media
Procedure: (§1) Most of the prebiotic compounds were initially tested in a high throughput assay screening process, described further in the Test Methods section herein, but three prebiotics (as noted in Table 3) were tested using a plate assay screening process as described in the Test Methods section herein. The prebiotics were tested against the commensal bacterial species of Lactobacillus crispatus, Lactobacillus gasseri, and Lactobacillus jensenii and against the pathogenic bacterial species of Streptococcus anginosus and Enterococcus faecalis as shown in Table 2. The bacterial species were taken from different sources, listed as culture collection, bladder, and vagina.
(§2) The results of the assay plate screening of the prebiotic compounds of Table 1 against the bacterial species of Table 2 is documented in Table 3 with the results being described by the following legend: • ++ if growth and fermentation was equal to or greater than the positive control • + if growth and fermentation was less than the positive control • […] if weak or no growth or fermentation • NT if not tested Some codes were not tested based on the use or non-use by the bacteria, as a way to efficiently move through the assay plate screening to the competition assay, described below.
(§3) • 1. Create a 2% w/v stock of prebiotic or positive control (glucose/dextrose) to be tested in API 50 CHL media (Biomerieux, Marcy-I'Étoile, France). API 50 CHL media contains minimal amounts of carbon for growth, and a bromocresol purple as a pH indicator of fermentation. Filter sterilize media with a […]. Store at 4-6° C. until use. • 2. Add 180 μL of media containing the prebiotic to a sterile, flat bottom 96-well microtiter plate (Corning, Corning, NY). • 3. From a freezer stock subculture the bacteria twice into De Man, Rogosa and Sharpe (MRS) broth (BD Difco, Becton Dickinson, Franklin Lakes, NJ), 37° C., stationary, anaerobic, overnight. • 4. From the last subculture, plate onto an MRS agar plate (Teknova, Hollister, CA) and grow 37° C., stationary, anaerobic, overnight. • 5. Create a bacterial suspension by using a sterile tipped swab to transfer colonies of bacteria into a PBS suspension blank to a 0.5 MacFarland (S. anginosus or E. faecalis) or a 1 MacFarland (Lactobacillus species) from the MRS agar plate. • 6. Enumerate the starting culture. • 7. Inoculate the media alone and media containing the prebiotic or positive control with 20 μL of the bacterial suspension. • 8. Place the plate into a spectrophotometer (Molecular Devices, San Jose, CA) and read the plate every 20 minutes for 24-48 hours. Read wavelengths (OD 430, OD 590, and OD 660). A color change to yellow caused by a drop in pH will be read by an increase in the OD430 value and a decrease in the OD590 value and is indicative of bacterial fermentation. An increase in OD660 values is indicative of an increase in turbidity and bacterial growth.

[1] = tested on: commensal and pathogenic bacterial species; assay: Prebiotic screening, summary in words across species; assay type: cell-based; conditions: for overall outcome of the screening of Table 3, in words: commensal (L. crispatus, L. gasseri, L. jensenii) and pathogenic (S. anginosus, E. faecalis) species
Procedure: as §1, §2, §3
• 1. An in house bacterial agar was created based on MRS agar (Kaplan and Hutkins, 2000) where the glucose is substituted for the prebiotic to be tested (either dextran MW ˜6,000, alpha-cyclodextrin, glucomannan, or pectin), bromocresol purple was included as a pH indicator. • 2. Bacteria were enumerated on each agar and color changes were recorded. Method for Competition Assay (Modified from “In Vitro Evaluation of Nutrients that Selectively Confer a Competitive Advantage to Lactobacilli” Vongsa et al, Beneficial Microbes 2016) • 1. Create 2% w/v stock of prebiotic or positive control (glucose/dextrose) as described above. • 2. From a freezer stock subculture the bacteria twice into De Man, Rogosa and Sharpe (MRS) broth (BD Difco, Becton Dickinson, Franklin Lakes, NJ), 37° C., stationary, anaerobic, overnight. • 3. From the last subculture, plate onto an MRS agar plate for L. crispatus KC18-1173-1 or blood agar for S. anginosus KC18-1131-3B, grow 37° C., stationary, anaerobic, overnight. • 4. […]

L. crispatus = assay: High throughput assay screening of prebiotics; assay type: cell-based, Lactobacillus crispatus; parameters: key: ++: if growth and fermentation was equal to or greater than the positive control; +: if growth and fermentation was less than the positive control; +: if weak or no growth or fermentation; +^2: Bacteria demonstrated growth but no fermentation on the prebiotic; conditions: 2% w/v prebiotic in API 50 CHL media; for growth and fermentation vs positive control, Lc-3: L. crispatus KC18-1173-1, Bladder; for growth and fermentation vs positive control, Lc-4: L. crispatus KC18-1174-1, Vagina
Procedure: as §1, §2, §3

L. gasseri = assay: High throughput assay screening of prebiotics; assay type: cell-based, Lactobacillus gasseri; parameters: key: ++: if growth and fermentation was equal to or greater than the positive control; +: if growth and fermentation was less than the positive control; +: if weak or no growth or fermentation; +^2: Bacteria demonstrated growth but no fermentation on the prebiotic; conditions: 2% w/v prebiotic in API 50 CHL media; for growth and fermentation vs positive control, Lg-1: L. gasseri KC16-7135-1, Bladder; for growth and fermentation vs positive control, Lg-2: L. gasseri KC16-7171-1, Bladder; for growth and fermentation vs positive control, Lg-3: L. gasseri KC18-1131-2, Bladder
Procedure: as §1, §2, §3

L. jensenii = assay: High throughput assay screening of prebiotics; assay type: cell-based, Lactobacillus jensenii; parameters: key: ++: if growth and fermentation was equal to or greater than the positive control; +: if growth and fermentation was less than the positive control; +: if weak or no growth or fermentation; +^2: Bacteria demonstrated growth but no fermentation on the prebiotic; conditions: 2% w/v prebiotic in API 50 CHL media; for growth and fermentation vs positive control, Lj-1: L. jensenii KC17-4297-18, Bladder
Procedure: as §1, §2, §3

E. faecalis = assay: High throughput assay screening of prebiotics; assay type: cell-based, Enterococcus faecalis; parameters: key: ++: if growth and fermentation was equal to or greater than the positive control; +: if growth and fermentation was less than the positive control; +: if weak or no growth or fermentation; +^2: Bacteria demonstrated growth but no fermentation on the prebiotic; conditions: 2% w/v prebiotic in API 50 CHL media; for growth and fermentation vs positive control, Ef-2: E. faecalis KC16-7171-3, Bladder; for growth and fermentation vs positive control, Ef-3: E. faecalis KC17-3969-2B, Bladder; for growth and fermentation vs positive control, Ef-4: E. faecalis KC17-4331-3, Bladder
Procedure: as §1, §2, §3

[2] = tested on: L. crispatus, KC18-1173-1, Bladder (Lc-3); assay: Competition assay, L. crispatus recovered; assay type: cell-based, Lactobacillus crispatus; conditions: Table 6, prebiotic 2%, one line per replicate
Procedure: (§4) Further testing was conducted to put the prebiotic compounds in competition assay testing, as further described in the test methods section herein. In the competition assay testing, each competition involved testing a single prebiotic compound with the commensal bacteria species of L. crispatus, KC18-1173-1, Bladder (“Lc-3”—Table 2) against the pathogenic bacterial species of S. anginosus, KC18-1131-3B, Bladder (“Sa-2”—Table 2).
(§5) • 1. An in house bacterial agar was created based on MRS agar (Kaplan and Hutkins, 2000) where the glucose is substituted for the prebiotic to be tested (either dextran MW ˜6,000, alpha-cyclodextrin, glucomannan, or pectin), bromocresol purple was included as a pH indicator. • 2. Bacteria were enumerated on each agar and color changes were recorded. Method for Competition Assay (Modified from “In Vitro Evaluation of Nutrients that Selectively Confer a Competitive Advantage to Lactobacilli” Vongsa et al, Beneficial Microbes 2016) • 1. Create 2% w/v stock of prebiotic or positive control (glucose/dextrose) as described above. • 2. From a freezer stock subculture the bacteria twice into De Man, Rogosa and Sharpe (MRS) broth (BD Difco, Becton Dickinson, Franklin Lakes, NJ), 37° C., stationary, anaerobic, overnight. • 3. From the last subculture, plate onto an MRS agar plate for L. crispatus KC18-1173-1 or blood agar for S. anginosus KC18-1131-3B, grow 37° C., stationary, anaerobic, overnight. • 4. Create a bacterial suspension by using a sterile tipped swab to transfer colonies of bacteria into a PBS suspension blank to a 2 MacFarland for both species. • 5. Enumerate the starting culture. • 6. Add 9.8 mL of prebiotic media into a 15 mL conical tube. • 7. Add 100 μL of the diluted bacteria to the media, incubate at 37° C., anaerobic, 48 hours. • 8. Harvest 100 μL from the tube containing the prebiotic and plate onto MRS agar and tryptic soy agar (TSA). • 9. Enumerate the bacteria on the MRS agar (both the L. crispatus and the S. anginosus). Small colonies are counted as S. anginosus and large colonies are counted as L. crispatus. • 10. Enumerate the bacteria on the TSA plate. […] Growth of the bacteria in the negative control (CHL media without prebiotic) was subtracted from the growth in the presence of the prebiotic or formulation.

[3] = tested on: S. anginosus, KC18-1131-3B, Bladder (Sa-2); assay type: cell-based; conditions: Table 6, prebiotic 2%, one line per replicate
Procedure: as §4, §5

[4] = tested on: ratio of L. crispatus/S. anginosus; assay: Therapeutic effect protocol (competition assay); assay type: cell-based, Lactobacillus crispatus; Streptococcus anginosus; conditions: Table 6; prebiotic 2%; Lc-3 vs Sa-2
Text: As used herein, the term “therapeutic effect” refers to the ability of the compositions and formulations of the present disclosure to stimulate the growth of L. crispatus relative S. anginosus measured according to the therapeutic effect protocol described below. The therapeutic effect can be expressed as a ratio of L. crispatus to S. anginosus and is desirably greater than about 100, more preferably greater than about 500 and more desirably greater than about 1,000.
as §4, §5
Colonies of L. crispatus and S. anginosus were tested against in the competition method assay test method as described above. The therapeutic effect was calculated by comparing the colony forming units recovered after the competition assay of both L. crispatus and S. anginosus and calculating the ratio of L. crispatus/S. anginosus. A larger number indicates an increase in L. crispatus and/or a decrease in S. anginosus and a smaller number indicates a decrease in L. crispatus and/or an increase in S. anginosus.

[5] = change vs start, background growth in CHL media subtracted, MRS agar

Row | SMILES | growth and fermentation vs positive control, Sa-2 (S. anginosus) | overall outcome of the screening of Table 3, in words [1] | growth and fermentation vs positive control, Lc-3 (L. crispatus) | growth and fermentation vs positive control, Lc-4 (L. crispatus) | growth and fermentation vs positive control, Lg-1 (L. gasseri) | growth and fermentation vs positive control, Lg-2 (L. gasseri) | growth and fermentation vs positive control, Lg-3 (L. gasseri) | growth and fermentation vs positive control, Lj-1 (L. jensenii) | growth and fermentation vs positive control, Ef-2 (E. faecalis) | growth and fermentation vs positive control, Ef-3 (E. faecalis) | growth and fermentation vs positive control, Ef-4 (E. faecalis) | further results
1 | OC[C@H]1O[C@](O)(CO)[C@@H](O)[C@@H]1O [Beta-D-fructose, Beta-D-Fructose] | ++ | able to provide growth on the commensal bacterial species, but also provided growth on the pathogenic bacterial species | ++ | ++ | + | + | + | ++ | ++ | ++ | ++ | growth and fermentation vs positive control, Lc-2 (L. crispatus; L. crispatus KC16-7134-3C, Bladder): ++; growth and fermentation vs positive control, Lg-4 (L. gasseri; L. gasseri KC18-1142-2, Bladder): +; growth and fermentation vs positive control, Lj-2 (L. jensenii; L. jensenii KC17-4347-1, Bladder): +; growth and fermentation vs positive control, Lj-3 (L. jensenii; L. jensenii KC17-4368-2, Bladder): ++
2 | OC[C@H]1O[C@H](O[C@H]2O[C@H](CO)[C@@H](O)[C@H](O)[C@H]2O)[C@H](O)[C@@H](O)[C@@H]1O [D-Trehalose] | ++ | – | ++ | + | ++ | ++ | ++ | + | ++ | ++ | ++ | –
3 | OC[C@@H](O)[C@@H](O[C@@H]1O[C@H](CO)[C@H](O)[C@H](O)[C@H]1O)[C@H](O)[C@@H](O)CO [Lactitol] | – | not able to provide growth for most, if not all, commensal and pathogenic bacterial species | – | – | – | – | – | – | – | – | – | growth of commensal bacterial species, in words ([1]; commensal species from culture collection, the bladder, or the vagina): did not show any positive growth; Lc-3 MRS Δ [2, 5]: 0.77 Log CFU/mL and 0.66 Log CFU/mL; Lc-3 MRS end ([2]; competition Sa-2 vs Lc-3, 48 hours, enumerated on MRS agar): 5.90 Log CFU/mL and 6.74 Log CFU/mL; Sa-2 MRS Δ [3, 5]: 0.75 Log CFU/mL and 0.69 Log CFU/mL; Sa-2 TSA Δ ([3]; change vs start, background growth in CHL media subtracted, TSA): 0.58 Log CFU/mL and 0.52 Log CFU/mL; Sa-2 MRS end ([3]; competition Sa-2 vs Lc-3, 48 hours, anaerobic, enumerated on MRS agar): 7.45 Log CFU/mL and 7.54 Log CFU/mL; Sa-2 TSA end ([3]; competition Sa-2 vs Lc-3, 48 hours, enumerated on TSA): 7.43 Log CFU/mL and 7.65 Log CFU/mL; growth and fermentation vs positive control, Ef-1 (E. faecalis; E. faecalis ATCC BAA-2128, Culture Collection): +; Therapeutic Effect (ratio of L. crispatus/S. anginosus) [4]: 2.95E−02 (2×) and 1.23E−01 (2×)

— patent publication US20230293560A1, “METHOD FOR MODULATING THE BLADDER MICROBIOME TO IMPROVE BLADDER HEALTH” (Kimberly-Clark Worldwide, Inc., priority 2020, published 2023)
